In one data set the test system is MC3T3-E1. Briefly: Cytotoxicity test (MTT), MC3T3-E1. Format: cell-based. The note with it: 10^−6 M, cultured for 72 hrs, in comparison with the control group. As to the method: (§1) The cytotoxic effect of the benzamidine derivative of the present invention was evaluated by carrying out the experiment described below.
(§2) The test substance was diluted in an appropriate solvent at a concentration of 10^−2 M. This substance was diluted in an appropriate culture medium for the cells used in the cytotoxicity test to a concentration of 10^−6M, and loaded into a 96-well plate in 100 μl per well. The cell lines to be used in the cytotoxicity test were plated on a 96-well plate in a dose of 1.0×10^4 cell/100 μl per well, and cultured for 72 hrs. 25 μl of MTT[3-(4,5-dimethyl-2-thiazolyl)-2,5-diphenyl-2H-tetrazolium bromide] dissolved in PBS (2 mg/mL) were added before 4 hrs of the end of culture. After completion of the reaction, the plates were centrifuged, the medium was discarded and 100 μl of DMSO was added to dissolve formazan. Finally, the absorbance of the developed plates was measured at 540 nm. The survival rates of the cells were expressed as % concentration values in comparison with the control group.

A further data set concerns calvaria. Put plainly: Cytotoxicity test (MTT), calvaria. Format: cell-based. The note with it: 10^−6 M, cultured for 72 hrs, in comparison with the control group. As to the method:
as §1, §2

In data set [1] the test system is osteoclast differentiation. Put plainly: Inhibitory effects on osteoclast differentiation (bone marrow cell/osteoblast co-culture, TRAP staining). Format: cell-based, mice. The note with it: for inhibition at 1 µM: Mus musculus, Osteoclast, 168 h, read-out: Inhibition of osteoclast differentiation (%). As to the method: The effect of the benzamidine derivative of the present invention on osteoclast formation and differentiation process was evaluated via co-culture with an osteoblast.
Tibia was aseptically ectomized from 6 to 8-week-old male ddY mice to harvest bone marrow cells by using a syringe (21G, Korea Green Cross). The bone marrow cells were suspended in 5 mL of an α-MEM medium (Gibco BRL Co., supplemented with sodium bicarbonate (2.0 g/L), streptomycin (100 mg/L) and penicillin ([…]), filtered and then sterilized). The harvested cells were centrifuged at 600×g for 5 minutes to collect the whole quantity. To remove the red blood cells in the bone marrow cells, 3 mL of Tris HCl (0.83% NH4Cl, pH 7.5) was added and well mixed. After centrifugation, the numbers of the eukaryotic cells in the harvested bone marrow cells were counted, and then immediately used for a co-culture system.
The progenitor bone and the parietal bone were aseptically ectomized from 1 to 2-day-old neonatal ICR mice, washed with a phosphate butter solution (PBS), and treated with a mixed enzyme solution (0.2% collagenase and 0.1% dispase) six to seven times (10, 10, 10, 20, 20 and 20 min), and then 3 to 6 groups of the cells, in which a large volume of cells having osteoblastic characteristics were contained, were intensively collected, and washed with medium (serum-free α-MEM). The washed cells were cultured in the α-MEM medium containing 10% FBS for 2 to 3 days. After sub-culturing, the collected cells were used for this experiment, and diluted to a concentration of 1×10^6 cells/mL for storage at −70° C.
The benzamidine derivative of the present invention was dissolved in a sterile distilled water or ethanol to be diluted to a desired concentration. The final volume of the sample added to the cell culture medium was set at a ratio of 1:1000.
The bone marrow cells prepared in the above 1-1 and the osteoblast were co-cultured. Both the bone marrow cells (25,000 cells/cm^2) and the osteoblast (10,000 cells/cm^2) were plated in a 96-well plate using α-MEM medium containing FBS, and then cultured with the samples to be tested for 7 days. Differentiation factors, such as dexamethasone (10^−7 M) and vitamin D (10^−8 M), were also co-added to the medium from the first day of cultivation. The medium was changed with a fresh media containing a mixture of the samples and the differentiation factors every 2 to 3 days.
TRAP was used as a marker to measure the matured osteoclast in consideration of its characteristics showing a positive reaction to a TRAP staining solution.
The TRAP staining solution was prepared in such the manner that 5 mg of naphthol AS-MS phosphate (sigma N-4875) as a substrate and 25 mg of a coloring agent (Fast Red Violet LB salt) were dissolved in N,N-dimethylformamide (about 0.5 mL). 50 ml of a 0.1 N […] buffer solution containing 50 mM tartaric acid (pH 5.0) was added thereto, and the mixture was stored in a refrigerator prior to use as a staining solution.
After culturing the cells for 7 days, the medium was removed from the wells, the cells were once washed with PBS, and then fixed with PBS containing 10% formalin for 2 to 5 min. The cells were fixed again in a mixed solution of ethanol and acetone (1/1) for about 1 min, and dried off. The cells were further treated by the TRAP staining solution for 15 minutes, and washed with water and dried off. The osteoclasts with 3 or more nuclei showing a TRAP-positive reaction were counted under a microscopic examination. Each of tests was confirmed at least three times. The inhibitory effect on osteoclast differentiation of each experimental group, relative to negative controls, was expressed as a percentage (%).

The subject of another data set is HOS. Briefly: Cytotoxicity test (MTT), HOS. Format: cell-based. As to conditions: 10^−6 M, cultured for 72 hrs, in comparison with the control group. As to the method: as §1, §2
[2] abbreviates: 1 μm, 7 days co-culture, TRAP-positive osteoclasts with 3 or more nuclei, relative to negative controls.

The source of these data is patent US20100249402A1, “NOVEL BENZAMIDINE DERIVATIVES, PROCESS FOR THE PREPARATION THEREOF AND PHARMACEUTICAL COMPOSITION FOR PREVENTING OR TREATING OSTEPOROSIS COMPRISING THE SAME” (DONG WHA PHARMACEUTICAL CO. LTD., priority 2007, published 2010).

Like-named read-outs stand apart in the source and are kept apart here.

For `Cc1nc(-c2ccc(OCCCCCOc3ccc(C(=N)NO)cc3)cc2)c(CNCC(C)C)s1` [Example 14, N-hydroxy-4-(5-{4-[5-(isobutylamino-methyl)-2-methyl-thiazol-4-yl]-phenoxy}-pentyloxy)-benzamidine], the Cell survival rate was determined as 98% in the data set with MC3T3-E1, 103% with calvaria and 111% in the data set with HOS. Besides, in data set [1], the inhibition (in general, the change of the read-out against control, counted positive when it falls) at 1 µM was found to be 100%.
Turning to `CN(C)c1sc(-c2ccccc2)nc1-c1ccc(OCCCCCOc2ccc(C(=N)NO)cc2)cc1` [Example 42, N-hydroxy-4-{5-[4-(5-dimethylamino-2-phenyl-thiazol-4-yl)-phenoxy]-pentyloxy}-benzamidine], the Cell survival rate is on record as 91% with MC3T3-E1, 98% in the data set with calvaria and 100% in the data set on HOS. In addition, the inhibition at 1 µM in data set [1] (setting [2]) worked out at 49%.
In the case of `Cc1nc(-c2ccc(OCCCCCOc3ccc(C(=N)NO)cc3)cc2)c(N)s1` [Example 46, N-hydroxy-4-{5-[4-(5-amino-2-methyl-thiazol-4-yl)-phenoxy]-pentyloxy}-benzamidine], the Cell survival rate in the data set with MC3T3-E1 was determined as 90%; in the data set with calvaria it was 95%; in the data set on HOS, 106%. For the same compound, the inhibition at 1 µM in data set [1] (setting [2]) stood at 88%.
For `Cc1nc(-c2ccc(OCCCCCOc3ccc(C(=N)NO)cc3)cc2)c(CNCCN2CCOCC2)s1` [Example 17, N-hydroxy-4-[5-(4-{2-methyl-5-[(2-morpholin-4-yl-ethylamino)-methyl]-thiazol-4-yl}-phenoxy)-pentyloxy]-benzamidine], the Cell survival rate in the data set on MC3T3-E1 is 103%; in the data set with calvaria it was 93%; in the data set with HOS it was 99%. Moreover, the inhibition at 1 µM in data set [1] was 100%.
Regarding `CN1CCN(Cc2sc(N(C)CCN3CCOCC3)nc2-c2ccc(OCCCCCOc3ccc(C(=N)NO)cc3)cc2)CC1` [Example 31, N-hydroxy-4-(5-{4-[2-[methyl-(2-morpholin-4-yl-ethyl)-amino]-5-(4-methyl-piperazin-1-ylmethyl)-thiazol-4-yl]-phenoxy}-pentyloxy)-benzamidine], the Cell survival rate in the data set on MC3T3-E1 came to 110%; in the data set on calvaria it was 102%; in the data set on HOS, 101%. Moreover, the inhibition at 1 µM in data set [1] (setting [2]) stood at 88%.
In the case of `N=C(NO)c1ccc(OCCCCCOc2ccc(-c3nc(N4CCOCC4)sc3N3CCSCC3)cc2)cc1` [Example 6, N-hydroxy-4-{5-[4-(2-morpholin-4-yl-5-thiomorpholin-4-yl-thiazol-4-yl)-phenoxy]-pentyloxy}-benzamidine], the Cell survival rate with MC3T3-E1 worked out at 90%; in the data set on calvaria, 106%; in the data set with HOS it was 92%. The inhibition at 1 µM in data set [1] amounted to 92%.
`CN(Cc1ccncc1)c1nc(-c2ccc(OCCCCCOc3ccc(C(=N)NO)cc3)cc2)c(CN2CCOCC2)s1` [Example 24, N-hydroxy-4-(5-{4-[2-(methyl-pyridin-4-ylmethyl-amino)-5-morpholin-4-ylmethyl-thiazol-4-yl]-phenoxy}-pentyloxy)-benzamidine]: the Cell survival rate in the data set with MC3T3-E1 worked out at 86%; with calvaria, 95%; in the data set on HOS, 112%. The inhibition at 1 µM in data set [1] came to 100%.
On to `CN(CCO)c1nc(-c2ccc(OCCCCCOc3ccc(C(=N)NO)cc3)cc2)c(CN2CCOCC2)s1` [Example 25, N-hydroxy-4-[5-(4-{2-[(2-hydroxy-ethyl)-methyl-amino]-5-morpholin-4-ylmethyl-thiazol-4-yl}-phenoxy)-pentyloxy]-benzamidine], for which the Cell survival rate came out at 100% in the data set on MC3T3-E1, 86% in the data set with calvaria and 86% in the data set on HOS. Moreover, in data set [1], the inhibition at 1 µM was 100%.
On to `CC(C)NCc1sc(N(C)CCN2CCOCC2)nc1-c1ccc(OCCCCCOc2ccc(C(=N)NO)cc2)cc1` [Example 32, N-hydroxy-4-[5-(4-{5-(isopropylamino-methyl)-2-[methyl-(2-morpholin-4-yl-ethyl)-amino]-thiazol-4-yl}-phenoxy)-pentyloxy]-benzamidine], for which the Cell survival rate in the data set with MC3T3-E1 was 104%; in the data set with calvaria, 98%; with HOS, 106%. The inhibition at 1 µM in data set [1] (setting [2]) came out at 100%.
Consider `Cc1nc(-c2ccc(OCCCCCOc3ccc(C(=N)NO)cc3)cc2)c(CNCCCn2ccnc2)s1` [Example 18], for which the Cell survival rate amounted to 99% with MC3T3-E1, 94% in the data set on calvaria and 106% with HOS. Also, the “Inhibition of osteoclast differentiation (%)” value in data set [1] (setting [2]) is given as 100%.
On to `CCCCNCc1sc(C)nc1-c1ccc(OCCCCCOc2ccc(C(=N)NO)cc2)cc1` [Example 13, N-hydroxy-4-{5-[4-(5-butylaminomethyl-2-methyl-thiazol-4-yl)-phenoxy]-pentyloxy}-benzamidine], for which the Cell survival rate in the data set with MC3T3-E1 is recorded as 93%; in the data set on calvaria it was 96%; in the data set on HOS, 106%. Also, the inhibition at 1 µM in data set [1] (setting [2]) is 100%.
As to `Cc1nc(-c2ccc(OCCCCCOc3ccc(C(=N)NO)cc3)cc2)c(N(C)C)s1` [Example 41], the figures for the Cell survival rate in the data set with MC3T3-E1, in the data set on calvaria and in the data set on HOS were 91%, 93% and 107%, respectively. In addition, the “Inhibition of osteoclast differentiation (%)” value in data set [1] (setting [2]) is listed as 94%.
As for `CN1CCN(c2sc(N3CCOCC3)nc2-c2ccc(OCCCCCOc3ccc(C(=N)NO)cc3)cc2)CC1` [Example 4, N-hydroxy-4-(5-{4-[5-(4-methyl-piperazin-1-yl)-2-morpholin-4-yl-thiazol-4-yl]-phenoxy}-pentyloxy)-benzamidine], the Cell survival rate was 89% in the data set with MC3T3-E1, 93% in the data set on calvaria and 104% with HOS. Besides, the inhibition at 1 µM in data set [1] was determined as 100%.
Consider `Cc1nc(-c2ccc(OCCCCCOc3ccc(C(=N)NO)cc3)cc2)c(CN2CCCCC2)s1` [Example 11, N-hydroxy-4-{5-[4-(2-methyl-5-piperidin-1-ylmethyl-thiazol-4-yl)-phenoxy]-pentyloxy}-benzamidine], for which the Cell survival rate was determined as 91.9% in the data set on MC3T3-E1, 95.8% in the data set on calvaria and 101.9% in the data set with HOS. Further, in data set [1] (setting [2]), the inhibition at 1 µM came to 92.3%.
For the compound `Cc1nc(-c2ccc(OCCCCCOc3ccc(C(=N)NO)cc3)cc2)c(CNC(C)(C)C)s1` [Example 15, N-hydroxy-4-(5-{4-[5-(tert-butylamino-methyl)-2-methyl-thiazol-4-yl]-phenoxy}-pentyloxy)-benzamidine], the Cell survival rate in the data set on MC3T3-E1 was found to be 99%; with calvaria it was 105%; with HOS, 98%. In data set [1], the inhibition at 1 µM stood at 100%.
In the case of `Cc1nc(-c2ccc(OCCCCCOc3ccc(C(=N)NO)cc3)cc2)c(-n2cncn2)s1` [Example 44, N-hydroxy-4-{5-[4-(2-methyl-5-[1,2,4]triazol-1-yl-thiazol-4-yl)-phenoxy]-pentyloxy}-benzamidine], the inhibition at 1 µM in data set [1] (setting [2]) was 68%.
